Reference: patent US4076703A, “Dipeptide derivatives and their production” (Shionogi & Co., Ltd., priority 1974, dated 1978)

Columns and labels:
DS male mice [1] = test: Anti-pentylenetetrazol activity; conditions: for Anti-pentylenetetrazol activity, ED50: test compound given orally 60 minutes prior to 125 mg/kg s.c. pentylenetetrazol, complete protection against mortality, observed 2 hours; for times more potent than diazepam in the anti-pentylenetetrazol activity: relative to diazepam (Compound No. 5)
Protocol: This test was measured on a group of 10 DS male mice. […] In this test, the test compound was given orally 60 minutes prior to the administration of pentylenetetrazol. The observation was made for 2 hours after the administration of pentylenetetrazol. The criterion of anticonvulsant activity was determined as being complete protection against mortality. The convulsions were disregarded. Results were shown as ED50 [Goodman, et al.: J. Pharmacol., 108, 168 (1953)].

DS male mice [2] = test: Taming activity (inhibition of electroshock-induced fighting); format: in vivo; conditions: for Taming activity ED50: administered 60 minutes prior to experiment, inhibition of fighting responses, 5 pairs of mice; for times more potent than diazepam in the taming activity: relative to diazepam (Compound No. 5)
Protocol: (§1) This test was measured on DS male mice.
These pairs of mice were selected in the morning and used for drug test in the afternoon. The test compound was administered to both mice of the pairs 60 minutes prior to the experiment. Results were obtained as the mean percentage of inhibition of fighting responses in a group of 5 pairs and shown by ED50 [Tedeschi, et al.: J. Pharmacol Exp. Thev., 125, 28-34 (1959)].

DS male mice [3] = test: Rotarod performance activity; format: in vivo; conditions: mouse falling from rod (5 rotations per minute) within less than 2 minutes
Protocol: 3. Rotarod performance activity:
as §1
The mouse was put on a scraped rod of wood, 3 cm in diameter, turning at the rate of five rotations per minute. The mice that could remain on the rod for 3 or more minutes in successive trails were selected and placed in a group of 10 mice for each dose. If the mouse fell down from the rod within less than 2 minutes, the test compound was considered to be effective. Results were shown by ED50 [Dunham, et al.: J. Am. Pharm. Assoc., 46, 208 (1957)].

DS male mice [4] = conditions: oral single dose, observed for 72 hours, Bliss method
Protocol: The test compound was orally administered to DS male mice in different single doses. For each dose, 10 mice were used, their weight ranging from 20 to 23 grams. […] The mortality was calculated by the Bliss method [Bliss: Ann.

[5] = relative to chlordiazepoxide (Compound No. 4)

Structure (SMILES): CN(C(=O)CNC(=O)CN)c1ccc(Cl)cc1C(=O)c1ccccc1 [Compound No. 1, 2-benzoyl-4-chloro-N-methyl-N^α -glycyl-glycinanilide]
- times more potent than chlordiazepoxide in the anti-pentylenetetrazol activity (DS male mice [1]; [5]): 2 to 3 times
- Anti-pentylenetetrazol activity, ED50 (DS male mice [1]): 1.0 mg/kg
- times more potent than chlordiazepoxide in the taming activity (DS male mice [2]; [5]): 2 to 3 times

Structure (SMILES): CN1C(=O)CN=C(c2ccccc2)c2cc(Cl)ccc21 [Compound No. 5, Diazepam]
- Rotarod performance ED50 (DS male mice [3]): 9.03 mg/kg

Structure (SMILES): CN(C(=O)CNC(=O)CN)c1ccc(Cl)cc1C(=O)c1ccccc1F.Cl [Compound No. 3, 2-o-fluorobenzoyl-4-chloro-N-methyl-N^α -glycyl-glycinanilide hydrochloride]
- times more potent than diazepam in the anti-pentylenetetrazol activity (DS male mice [1]): 2 to 4 times
- Anti-pentylenetetrazol activity, ED50 (DS male mice [1]): 0.33 mg/kg
- Acute toxicity LD50 (DS male mice [4]): > 1000 mg/kg
- Taming activity ED50 (DS male mice [2]): 1.6 mg/kg
- times more potent than diazepam in the taming activity (DS male mice [2]): 2 to 4 times
- Rotarod performance ED50 (DS male mice [3]): 17.0 mg/kg

Structure (SMILES): CNC1=Nc2ccc(Cl)cc2C(c2ccccc2)=[N+]([O-])C1 [Compound No. 4, Chlordiazepoxide]
- Rotarod performance ED50 (DS male mice [3]): 50.0 mg/kg

Structure (SMILES): CN(C(=O)CNC(=O)CN)c1ccc(Cl)cc1C(=O)c1ccccc1Cl.O [Compound No. 2, 2-o-chlorobenzoyl-4-chloro-N-methyl-N^α -glycyl-glycinanilide hydrate]
- times more potent than diazepam in the anti-pentylenetetrazol activity (DS male mice [1]): 2 to 4 times
- Anti-pentylenetetrazol activity, ED50 (DS male mice [1]): 0.58 mg/kg
- Taming activity ED50 (DS male mice [2]): 3.0 mg/kg
- times more potent than diazepam in the taming activity (DS male mice [2]): 2 to 4 times
